According to BigSolDB 2.1:

CN1C(C(=O)Nc2ccccn2)=C(O)c2sc(Cl)cc2S1(=O)=O
Settings	solubility (mole fraction)
in PEG-400, 298.15 K	0.00861
in PEG-400, 303.15 K	0.0099
in PEG-400, 308.15 K	0.0112
in PEG-400, 313.15 K	0.013
in PEG-400, 323.15 K	0.0171

in water
Settings	solubility (mole fraction)
298.15 K	2.9e-06
303.15 K	4.11e-06
308.15 K	5.62e-06
313.15 K	7.41e-06
323.15 K	1.2e-05
